Reference: ChEMBL document CHEMBL1152241, “Synthesis and recovery of high bioactive phenolics from table-olive brine process wastewater” (Bioorg Med Chem, 2008)
Converted amounts (≈) assume the structure as drawn. The source made the active and inactive calls. No cut-off for these calls is given here.

Legend:
Aspergillus niger = assay: Antifungal activity against Aspergillus niger ATCC 16404 after 24 to 72 hrs at 28 degC by broth dilution susceptibility test; type: functional
DG-75 [1] = assay: Cytotoxicity against human DG75 cells after 48 hrs by MTT assay; type: functional, cell-based; details: for IC50: DG-75, 48 h
Candida albicans = assay: Antifungal activity against Candida albicans ATCC 10231 after 24 to 72 hrs at 28 degC by broth dilution susceptibility test; type: functional
Escherichia coli = assay: Antibacterial activity against Escherichia coli ATCC 10536 after 24 to 72 hrs at 37 degC by broth dilution susceptibility test; type: functional
Salmonella enterica = assay: Antibacterial activity against Salmonella enterica CIP 80.39 after 24 to 72 hrs at 37 degC by broth dilution susceptibility test; type: functional
[2] = Antioxidant activity assessed as ferric ion reducing activity by FRAP assay; type: functional
Bacillus subtilis = assay: Antibacterial activity against Bacillus subtilis ATCC 6633 after 24 to 72 hrs at 30 degC by broth dilution susceptibility test; type: functional
Pseudomonas aeruginosa = assay: Antibacterial activity against Pseudomonas aeruginosa ATCC 15442 after 24 to 72 hrs at 30 degC by broth dilution susceptibility test; type: functional
PBL = assay: Cytotoxicity against human PBL after 48 hrs by MTT assay; type: cell-based
[3] = tested on: Radical scavenging activity; assay: Antioxidant activity assessed as DPPH radical scavenging activity after 30 mins; type: functional
[4] = Antioxidant activity assessed as trolox equivalent of ABTS radical scavenging activity; type: functional
HeLa [5] = assay: Cytotoxicity against human HeLa cells after 48 hrs by MTT assay; type: functional, cell-based
DG-75 [6] = assay: Antioxidant activity against ferrous ion-induced oxidative stress in human DG75 cells assessed as decrease in malondialdehyde formation at 10 ug/mL pretreated for 4 hrs before Fe2+ challenge by TBARS assay; type: functional, cell-based
Staphylococcus aureus = assay: Antibacterial activity against Staphylococcus aureus ATCC 9144 after 24 to 72 hrs at 37 degC by broth dilution susceptibility test; type: functional
HeLa [7] = assay: Antioxidant activity against ferrous ion-induced oxidative stress in human HeLa cells assessed as decrease in malondialdehyde formation at 20 ug/mL pretreated for 4 hrs before Fe2+ challenge by TBARS assay; type: functional, cell-based
DG-75 [8] = assay: Antioxidant activity against ferrous ion-induced oxidative stress in human DG75 cells assessed as decrease in malondialdehyde formation at 20 ug/mL pretreated for 4 hrs before Fe2+ challenge by TBARS assay; type: functional, cell-based
HeLa [9] = assay: Antioxidant activity against ferrous ion-induced oxidative stress in human HeLa cells assessed as decrease in malondialdehyde formation at 10 ug/mL pretreated for 4 hrs before Fe2+ challenge by TBARS assay; type: functional, cell-based

Row | Structure (SMILES) | MIC (Aspergillus niger) | Activity (DG-75 [1]) | IC50 (DG-75 [1]) | MIC (Candida albicans) | MIC (Escherichia coli) | MIC (Salmonella enterica) | Activity [2] | MIC (Bacillus subtilis) | MIC (Pseudomonas aeruginosa) | Activity (PBL) | Activity [3] | Activity [4] | Activity (HeLa [5]) | IC50 (HeLa [5]) | IC50 [3] | Activity (DG-75 [6]) | MIC (Staphylococcus aureus) | Activity (HeLa [7]) | Activity (DG-75 [8]) | Activity (HeLa [9])
1 | CC(=O)OCCc1ccc(OC(C)=O)c(OC(C)=O)c1 | 500 µg/mL (≈ 1780 µM) | Dose-dependent effect | 27 µg/mL (≈ 96.3 µM) | 500 µg/mL (≈ 1780 µM) | 250 µg/mL (≈ 892 µM) | 250 µg/mL (≈ 892 µM) | inactive | 125 µg/mL (≈ 446 µM) | 250 µg/mL (≈ 892 µM) | Not Active | inactive | inactive | Dose-dependent effect | 92 µg/mL (≈ 328 µM) |  |  |  |  |  | 
2 | Cc1cc(C(C)(C)C)c(O)c(C(C)(C)C)c1 [BUTYLATED HYDROXYTOLUENE] |  |  |  |  |  |  |  |  |  |  |  | 2.37 mmol |  |  | 7.94 µg/mL (≈ 36 µM) |  |  |  |  | 
3 | OCCc1ccc(O)c(O)c1 [HYDROXYTYROSOL] | 250 µg/mL (≈ 1620 µM) | Dose-dependent effect | 58 µg/mL (≈ 376 µM) | 125 µg/mL (≈ 811 µM) | 125 µg/mL (≈ 811 µM) | 125 µg/mL (≈ 811 µM) | Active | 62.5 µg/mL (≈ 405 µM) | 125 µg/mL (≈ 811 µM) | Not Active |  | 3.4 mmol | Dose-dependent effect | 70 µg/mL (≈ 454 µM) | 3.71 µg/mL (≈ 24.1 µM) | Active | 62.5 µg/mL (≈ 405 µM) | Active | Active | Active
